Data: patent US20240240226A1, “FLUOROGENIC ASSAY FOR RAPID SCREENING OF BACTERIAL BETA-LACTAMASE ACTIVITY” (The Board of Trustees of the Leland Stanford Junior …, priority 2021, published 2024)

Experiments:
TEM-1 Bla = biological target: T1, TEM-1 Bla (Escherichia coli, UniProt P62593); experiment: CDA fluorescence turn-on with recombinant TEM-1 Bla, esterase and H2O2; assay type: biochemical
T1 construct: TEV(Cys) (TEV site / Cys element as named in the plasmid); made in house; host or cells: E. coli (BL21 or TOP10)

E. coli/IMP-1 = experiment: CDA/H2O2 detection of live E. coli expressing IMP-1 carbapenemase; assay type: cell-based; settings: H2O2 1 mM, within 2 hours
Description: (§1) FIG. 3 illustrates the characterization of CDA with HRP, H2O2, E. coli expressing TEM-1 Bla (E. coli/TEM-1) and IMP-1 carbapenemase (E. coli/IMP-1), and K. pneumoniae expressing KPC carbapenemase (K. pneumoniae/KPC). a) Fluorescence enhancement of CDA incubated with different concentrations of E. coli expressing TEM-1 Bla. b) Fluorescence enhancement of CDA; HRP (1 unit/mL), H2O2 (1 μM), and either viable E. coli expressing TEM-1 Bla or bacterial lysate extracted from equal c.f.u. per milliliter. c) Fluorescence enhancement of CDA incubated with different concentrations of E. coli expressing TEM-1 Bla (H2O2, 1 mM). d) Fluorescent intensity of E. coli and E. coli/TEM-1 preincubated with CDA for 20 hours upon addition of H2O2 (500 μM) for 5 min. Error bars represent ±SD, n=3. * p<0.0332; **p<0.0021, ****p<0.0001, ns: not significant. e) Fluorescence enhancement of CDA incubated with different concentrations of E. coli expressing IMP-1 carbapenemase in the presence of H2O2 (1 mM). f) Fluorescence enhancement of CDA incubated with different concentrations of K. pneumoniae expressing KPC carbapenemase (H2O2, 1 mM). All the studies were duplicated at room temperature with PBS (pH=7.05) as the buffer unless other indicated. The working concentration of CDA was 10 μM. […] Data were collected on a Tecan Safire microplate reader with excitation at 570 nm and emission at 600 nm. […]

[1] = Stability test in H2O2 in PBS; assay type: physicochemical; settings: room temperature
Description: FIG. 2 illustrates the characterization of CDA with recombinant TEM-1 Bla, esterase, HRP, and H2O2. a) Stability test of CDA in different concentrations of H2O2 in PBS. The signal of PBS was subtracted and the absolute values were plotted. b) Fluorescence enhancement of CDA treated with esterase […], TEM-1 Bla (100 nM) and H2O2 (100 μM or 1 mM). c) Activation of CDA by esterase (1 μg/mL) and TEM-1 Bla (100 nM) with or without oxygen in the reaction. Glass flasks with working solution were continuously vacuumed to maintain a deoxidized environment. Samples were transferred and scanned immediate at each time point in a black 96 well plate. Error bars represent ±SD, n=3. d) Fluorescence enhancement of CDA treated with esterase (1 μg/mL), TEM-1 Bla (100 nM), HRP (1 unit/ml), and H2O2 (1 μM). e) Fluorescence enhancement of different concentrations of CDA treated with esterase (1 μg/mL), TEM-1 Bla (100 nM) and H2O2 (1 mM). f) Fluorescence enhancement of CDA treated with indicated amounts of β-lactamases, esterase (1 μg/mL) and H2O2 (1 mM) after incubation at room temperature for 2 h. […] Data were collected on a Tecan Safire microplate reader with excitation at 570 nm and emission at 600 nm. […]
As oxidation is the essential step in converting β-lactamase/esterase processed CDA to resorufin, the stability of CDA was evaluated in different concentrations of H2O2 (FIG. 2a). […]

K. pneumoniae/KPC = experiment: CDA/H2O2 detection of K. pneumoniae expressing KPC carbapenemase; assay type: cell-based; settings: clinical isolate, H2O2 1 mM, within 2-3 hours
Description: as §1, with “mM).” for “mM). All the studies were duplicated at room temperature with PBS (pH=7.05) as the buffer unless other indicated. The working concentration of CDA was 10 μM.”
CDA was also tested for detecting K. pneumoniae. […] Similar to E. coli/KPC-3, 10^6 c.f.u./mL KPC-positive K. pneumoniae could be detected within 2-3 hours. […]

T1 sequence (P62593 24-286 limits assumed): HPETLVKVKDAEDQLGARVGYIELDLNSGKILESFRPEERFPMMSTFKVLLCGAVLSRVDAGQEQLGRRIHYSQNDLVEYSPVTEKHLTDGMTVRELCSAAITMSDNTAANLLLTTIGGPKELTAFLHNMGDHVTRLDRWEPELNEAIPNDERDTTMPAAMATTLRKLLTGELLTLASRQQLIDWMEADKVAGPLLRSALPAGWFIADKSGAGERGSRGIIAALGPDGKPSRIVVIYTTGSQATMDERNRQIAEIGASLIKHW

Structure (SMILES): CC(=O)Oc1ccc2c(c1)Oc1cc(OC(C)=O)ccc1N2C(=O)OCc1ccc(SCC2=C(C(=O)O)N3C(=O)[C@@H](NC(=O)Cc4ccccc4)[C@H]3SC2)cc1 [CDA, 3-(((4-(((3,7-diacetoxy-10H-phenoxazine-10-carbonyl)oxy)methyl)phenyl)thio)methyl)-8-oxo-7-(2-phenylacetamido)-5-thia-1-azabicyclo[4.2.0]oct-2-ene-2-carboxylic acid]
- minimum CDA concentration required for reporting β-lactamase/esterase activity (TEM-1 Bla; esterase 1 μg/mL, TEM-1 Bla 100 nM, H2O2 1 mM): 100 nM
- fluorescence with TEM-1 Bla and esterase without H2O2 (TEM-1 Bla; no H2O2, oxidation by dissolved oxygen): displayed fluorescence turn-on
- bacteria concentration detected (E. coli/IMP-1): 105 c.f.u./mL
- stability of the sulfur center in H2O2 (LC-MS) ([1]; H2O2 1 mM, 2 hours): stable
- spontaneous hydrolysis in H2O2 ([1]; up to 1 mM H2O2 in PBS, within 2 hours): Almost no spontaneous hydrolysis
- bacteria concentration detected (K. pneumoniae/KPC): 10^6 c.f.u./mL
